Read-outs that look alike come from different tables or passages of the source.
What was measured:
MDA-MB-231 cells [1] = assay: Cellular uptake of metformin sulfonamides in MDA-MB-231 cells (HPLC); assay type: in vitro ADME, human; conditions: for transport efficacy (Vmax/Km) in MCF-7 relative to MDA-MB-231: fold lower in MDA-MB-231 than in MCF-7
Method: The uptake of metformin sulfonamides (1–9) in MCF-7 and MDA-MB-231 cells was studied by incubation of the cells with 10−3000 μmol/L of compounds in 250 μL of prewarmed HBSS buffer at 37 °C for 10 min. Subsequently, the cells were then washed three times with 500 μL of ice-cold HBSS and lysed with 250 μL of 0.1-M NaOH. The samples were collected, centrifuged (5 min, 1400 rpm) and the supernatants were analyzed by the HPLC method. The concentration of each compound in the cells was calculated on the basis of the standard curve prepared by spiking known amounts of every compound on the cell layers in 250 μL of 0.1-M NaOH.
The concentration of the studied sulfonamides (1–9) was assessed using the HPLC system, consisting of an Agilent 1100 binary pump (Agilent Technologies Inc., Wilmington, DE, USA), an 1100 micro-vacuum degasser, an HP 1050 autosampler and an HP 1050 variable wavelength detector (operated at 235 nm). The chromatographic separations of compounds 1–9 were conducted on an Agilent Zorbax SB-C18 analytical column (4.6 mm × 150 mm, 5 μm) using an isocratic elution of water containing 0.1% formic acid (pH ca. 3.0) and acetonitrile containing 0.1% formic acid with a changing ratio, depending on the compound. The analyses were conducted at room temperature (RT). The detailed procedure of chromatographic analysis was described in our previous paper. The studies were conducted in quadruplicates.
The protein concentrations in representative wells of each plate were assessed using a Bio-Rad protein assay according to the Bradford method (EnVision, PerkinElmer, Inc., Waltham, MA, USA).

MCF-7 cells [2] = assay: Uptake in the presence of OCT and MATE inhibitors, MCF-7 cells; assay type: in vitro ADME, human; conditions: for uptake in the presence of cimetidine, MCF-7 / uptake in the presence of disopyramide, MCF-7 / uptake in the presence of lopinavir, MCF-7 / uptake in the presence of methenamine, MCF-7: compound and inhibitor 400 and 800 µmol/L, 10 min, 37 °C; for interactions with OCT, PMAT and MATE1 transporters, MCF-7: summary from uptake with inhibitors
Method: The uptake of sulfonamide derivatives of metformin (1–9) in MCF-7 and MDA-MB-231 cells was studied also in the presence of disopyramide, cimetidine (OCT1 and 3 inhibitors), lopinavir (OCT and PMAT inhibitor) and methenamine (MATE and OCT2 inhibitors). The cells were incubated (37 °C, 10 min) with compounds 1–9 at concentrations of 400 and 800 μmol/L and inhibitors (disopyramide, cimetidine, lopinavir or methenamine) in 250 μL of prewarmed HBSS buffer. The protocol of determination of the compound concentration was as described above.

MCF-7 cells [3] = assay: Cell viability WST-1 assay, MCF-7; assay type: cell-based; conditions: Homo sapiens, MCF7; WST-1, 24 h, mean ± SD (n = 6–8); read-out: IC50 inhibition of MCF-7 cells' viability
Method: The viability of MCF-7 and MDA-MB-231 cells was determined using a colorimetric WST-1 assay (Takara, Takara Bio Europe, Saint-Germain-en-Laye, France). Both cell lines were seeded at a density of 1 × 10^4 per well on 96-well plates and were cultured for 24 h to obtain 70% confluence. The following day, the cells were treated with various concentrations of compounds 1–9 diluted in the cell culture medium ([…]). The cells were incubated with tested compounds or pure medium (control) for 24 h (37 °C, 5% CO2). Afterwards, the cells were washed with 100 μL of culture medium, and then, the reagent dissolved in the medium was added (100 μL). The plates were incubated at the standard condition for 1.5 h, and the absorbance was read at 450 nm using a microplate reader (iMARK, Bio-Rad, Bio-Rad Laboratories Inc., Hercules, CA, USA). […] The results of samples treated with the test compounds were expressed as a percentage of the control samples. The data were presented as mean ± standard deviation (SD), n = 8. IC50 values (the concentration of the tested compound that inhibited cell growth by 50%) were calculated using a concentration-response curve (GraphPad Prism, Software, San Diego, CA, USA).
The concentrations contributing to the 50% of cell growth inhibition (IC50) were calculated using nonlinear regression analysis (fitting the curve to log (concentration) vs. cellular response).

MDA-MB-231 cells [4] = assay: Annexin V-FITC/PI apoptosis assay, MDA-MB-231; assay type: cell-based, human; conditions: for Early Apoptotic [E+−] / Late Apoptotic [E++] / Living Cells [E−−] / Necrotic Cells [E−+] / Single Cells in Gate B: MDA-MB-231, 24 h
Method: MCF-7 and MDA-MB-231 cells were seeded at a density of 5 × 10^4 per well on 24-well plates and incubated for 24 h (37 °C, 5% CO2) to obtain 70 % confluency. Then, the medium (control) or medium with the tested compounds in a volume of 250 μL was added and incubated for another 24 h. The cells were harvested using accutase (Sigma Aldrich, St. Louis, MO, USA) as a detaching reagent, collected to Eppendorf tubes and centrifuged (1100 rpm, 5 min). Afterwards, the cells were resuspended in 1 mL of a cold cell-staining buffer (Biolegend, London UK) and washed twice with a cell-staining buffer. The final step included suspension of the cell pellets in 100 μL of a binding buffer, staining with propidine iodide (PI; 10 μL) and FITC-annexin solutions (AV; 5 μL) (FITC Annexin V Apoptosis Detection Kit with PI (Biolegend, UK)). The samples were incubated for 20 min at room temperature in the dark, followed by an analysis conducted on a cytometer (CytoFlex, blue laser, 480 nm, Beckman-Coulter, Indianapolis, IN, USA). The results were analyzed using Kaluza 2.1 (Beckman-Coulter) software.
Annexin V (−) and PI (−) cells were considered living cells, annexin V (+) and PI (−) as early-apoptotic cells, annexin V (+) and PI (+) as late-apoptotic cells and annexin V (−) and PI (+) as necrotic cells.
The experiments were conducted in triplicates (n = 3). The coefficients of variation for the assay were determined (CV = 0.97–13.62%, depending on the calculated cell population).

[5] = Eadie-Hofstee analysis, transporter I
[6] = Eadie-Hofstee analysis, transporter I, read-out: Km, transporter I, MDA-MB-231
[7] = Eadie-Hofstee analysis, transporter II
[8] = Eadie-Hofstee analysis, transporter II, read-out: Km, transporter II, MDA-MB-231
[9] = Comp. 1 and 4 1500 μmol/L, Comp. 7 1300 μmol/L (½ × IC50)
[10] = Comp. 1 and 4 3000 μmol/L, Comp. 7 2600 (IC50)
[11] = MDA-MB-231, 3000 uM, representative cytogram Figure 7B

SMILES	Vmax, transporter I, MDA-MB-231 (MDA-MB-231 cells [1]; [5])	Km (MDA-MB-231 cells [1]; [6])	Vmax, transporter II, MDA-MB-231 (MDA-MB-231 cells [1]; [7])	Km (MDA-MB-231 cells [1]; [8])	transport efficacy (Vmax/Km) in MCF-7 relative to MDA-MB-231 (MDA-MB-231 cells [1])	uptake in the presence of cimetidine, MCF-7 (MCF-7 cells [2])	uptake in the presence of disopyramide, MCF-7 (MCF-7 cells [2])	uptake in the presence of lopinavir, MCF-7 (MCF-7 cells [2])	interactions with OCT, PMAT and MATE1 transporters, MCF-7 (MCF-7 cells [2])	IC50 (MCF-7 cells [3])	Early Apoptotic [E+−] (MDA-MB-231 cells [4]; [9])	Late Apoptotic [E++] (MDA-MB-231 cells [4]; [9])	Living Cells [E−−] (MDA-MB-231 cells [4]; [9])	Necrotic Cells [E−+] (MDA-MB-231 cells [4]; [9])	Single Cells in Gate B (MDA-MB-231 cells [4]; [9])	Early Apoptotic [E+−] (MDA-MB-231 cells [4]; [10])	Late Apoptotic [E++] (MDA-MB-231 cells [4]; [10])	Living Cells [E−−] (MDA-MB-231 cells [4]; [10])	Necrotic Cells [E−+] (MDA-MB-231 cells [4]; [10])	Single Cells in Gate B (MDA-MB-231 cells [4]; [10])	further results
CN(C)C(=N)N=C(N)NS(=O)(=O)c1ccccc1Cl [Compound 1]	0.0182 ± 0.0026 nmol/min/mg	3.07 ± 0.562 mM	0.0261 ± 0.0040 nmol/min/mg	3.3 ± 0.625 mM	over 370 fold	significantly decreased	Lower uptake, however, not statistically significant	significantly higher uptake	OCT1, OCT3, PMAT, MATE1	12.6 ± 1.2 µM	7.66 ± 0.06 %	8.06 ± 0.81 %	81.55 ± 1.65%	2.74 ± 0.98%	94.34 ± 0.26%	9.96 ± 0.92 %	31.41 ± 3.46 %	53.83%	4.81 ± 0.60%	91.85 ± 0.37 %	Vmax MDA-231 cells (Michaelis Menten curves) (MDA-MB-231 cells [1]; Michaelis-Menten curve): 0.047 ± 0.065 nmol/min/mg; Km (MDA-MB-231 cells [1]; Michaelis-Menten curve, read-out: Km MDA-231 cells (Michaelis Menten curves)): 8.3 ± 3.27 mM; uptake in the presence of methenamine, MCF-7 (MCF-7 cells [2]): significantly decreased; Living Cells [E−−] (MDA-MB-231 cells [4]; Comp. 1 and 4 1500 μmol/L, Comp. 7 1300 μmol/L (½ × IC50), listed as Comp. 1): 81.55 ± 1.65 %; Living Cells [E−−] (MDA-MB-231 cells [4]; Comp. 1 and 4 3000 μmol/L, Comp. 7 2600 (IC50), listed as Comp. 1): 53.83 ± 3.87 %
CN(C)C(=N)N=C(N)NS(=O)(=O)c1ccccc1F [Compound 7]	0.262 ± 0.035 nmol/min/mg	1.53 ± 0.298 mM	0.443 ± 0.026 nmol/min/mg	2.25 ± 0.19 mM	10 fold	decrease in uptake	–	increase in its uptake	OCT3, PMAT	55.1 ± 2.74 µM	8.78 ± 0.63 %	18.89 ± 2.67 %	68.26 ± 3.51 %	4.06 ± 1.75%	93.75 ± 0.41%	6.39 ± 0.16 %	35.54 ± 2.67 %	50.40 ± 4.95 %	7.66 ± 2.93 %	91.60 ± 0.48 %	–
CN(C)C(=N)N=C(N)NS(=O)(=O)c1ccccc1Br [Compound 4]	10.27 ± 1.18 nmol/min/mg	5.52 ± 0.748 mM	21.44 ± 4.03 nmol/min/mg	11.6 ± 2.44 mM	–	did not change	increased the uptake	increased the uptake	OCT1, PMAT	430 ± 119 µM	7.74 ± 0.91 %	13.30 ± 0.66 %	72.64 ± 1.76 %	6.31 ± 0.26 %	93.37 ± 0.34%	6.85 ± 0.34 %	36.51 ± 3.36 %	49.49 ± 2.31 %	7.15 ± 1.45 %	90.59 ± 0.70 %	uptake into MDA-MB-231 cells (MDA-MB-231 cells [1]; 800 μmol/L, 10 min incubation, 37 °C): 1.3 ± 0.21 nmol/min/mg protein; uptake in MDA-MB-231 relative to MCF-7 (MDA-MB-231 cells [1]; fold more efficient in MDA-MB-231 than in MCF-7): approximately 130 fold; uptake in the presence of methenamine, MCF-7 (MCF-7 cells [2]): did not change; Early apoptosis (representative cytogram) (MDA-MB-231 cells [4]; [11]): 6.91%; Late apoptosis (representative cytogram) (MDA-MB-231 cells [4]; [11]): 34.48%; Live cells (representative cytogram) (MDA-MB-231 cells [4]; [11]): 51.21%; Necrotic cells (representative cytogram) (MDA-MB-231 cells [4]; [11]): 7.40%

— article PMC7177633, “Effective Cellular Transport of Ortho-Halogenated Sulfonamide Derivatives of Metformin Is Related to Improved Antiproliferative Activity and Apoptosis Induction in MCF-7 Cells” (International Journal of Molecular Sciences, 2020)
